According to patent US11926619B2, “Certain pladienolide compounds and methods of use” (EISAI R&D MANAGEMENT CO., LTD., priority 2018, dated 2024):

What was measured:
Assay type in all cases: cell-based
[1] = test system: WiDr cells (colon cancer cells; wildtype SF3B1); test: Cell viability assay (CellTiter-Glo, 72 hr), WiDr cells; settings: Homo sapiens; WiDr cells (wildtype SF3B1); read-out: WiDr GI50
Experimental: (§1) Cells (WiDr and Panc05.04 obtained from ATCC) were seeded in 96-well plates, with 2000 cells/100 μL/well, and incubated overnight. Spent media was removed, and fresh media containing 9 different concentrations of compound (100 μL/well) were added, with DMSO concentration from compound stock solution adjusted to be 0.1%. Each compound treatment was done in duplicate or triplicate at each concentration.
(§2) Another plate with cells seeded was dedicated as a time zero (Tz) plate, to which was added 0.1% DMSO in media (100 μL/well) followed by CellTiter-Glo® reagent (Promega Corporation, Madison, Wisconsin) (50 μL/well) for ATP measurement as a surrogate of cell viability. Average value from measurement of multiple wells of this plate is used as Tz. Compound-treated plates were incubated for 72 hr at 37° C. Then, CellTiter-Glo® reagent (50 μL/well) was added and ATP was measured. Average value from measurement of the duplicate or triplicate compound-treated wells is used as Ti, and seeded plates with medium having 0.1% DMSO without compound is used as control growth (C).
(§3) Percentage growth inhibition/Percentage viability was calculated as:
(§4) [(Ti−Tz)/(C−Tz)]×100 for concentrations for which Ti>/=Tz
(§5) [(Ti−Tz)/Tz]×100 for concentrations for which Ti<Tz.
(§6) *time zero (Tz), control growth (C), and test growth in the presence of compound (Ti) Percentage growth inhibition/Percentage viability are plotted versus compound concentration to determine Emax.
Emax refers to the maximum achievable response to a compound in a tested dose range, with a negative value indicating cellular lethality. A larger negative Emax value indicates greater cellular lethality for a particular compound. […]

[2] = test system: WiDr-R cells (colon cancer cells; chemically-induced SF3B1 R1074H mutant); test: Cell viability assay (CellTiter-Glo, 72 hr), resistant WiDr-R cells (counter-screen); settings: WiDr-R cells (SF3B1 R1074H mutation, resistant); read-out: WiDr-R GI50
Experimental: as §1, §2, §3, §4, §5, §6
(§7) Emax refers to the maximum achievable response to a compound in a tested dose range, with a negative value indicating cellular lethality. A larger negative Emax value indicates greater cellular lethality for a particular compound.
The counter-screening of compounds in this viability assay with a “resistant” WiDr-R cell line may indicate whether these compounds have off-target effect(s).

[3] = test system: Panc 05.04 cells (pancreatic cancer cells; Q699H and K700E mutations in SF3B1); test: Cell viability assay (CellTiter-Glo, 72 hr), Panc 05.04 cells; settings: Panc 05.04 cells (mutant SF3B1); for Emax: maximum achievable response in tested dose range, negative value = cellular lethality, read-out: Panc 05.04 (mt SF3B1 cells) Emax (%); for GI50: read-out: Panc 05.04 (mt SF3B1 cells), GI50
Experimental: as §1, §2, §3, §4, §5, §6, §7

Row | Compound | GI50 [1] [nM] | GI50 [2] [nM] | Emax [3] [%] | GI50 [3] [nM]
1 | C/C(=C\C=C\[C@@H](C)CN(C)C(=O)N1CCCC1)[C@H]1OC(=O)C[C@H](O)CC[C@@](C)(O)[C@@H](OC(=O)N2CCN(C3CCCCCC3)CC2)/C=C/[C@@H]1C | 145 | > 1000 | -94.5 | 23.5
2 | CC(=O)O[C@H]1/C=C/[C@H](C)[C@@H](/C(C)=C/C=C/[C@@H](C)c2ccccn2)OC(=O)CCCCC1 | > 10000 | > 10000 |  | > 10000
3 | C/C(=C\C=C\[C@@H](C)c1ccccn1)[C@H]1OC(=O)C[C@H](O)CC[C@@](C)(O)[C@@H](OC(=O)N(C)C2CCN(C)CC2)/C=C/[C@@H]1C | 16.2 | > 1000 | -60.2 | 25.1
4 | CC(=O)O[C@H]1/C=C/[C@H](C)[C@@H](/C(C)=C/C=C/C(C)(O)c2ccccc2)OC(=O)C[C@H](O)CC[C@@]1(C)O (some centres unmarked) | 657 | > 10000 | 13.3 | 1500
5 | CC(=O)O[C@H]1/C=C/[C@H](C)[C@@H](/C(C)=C/C=C/C(C)Cc2ccccn2)OC(=O)C[C@H](O)CC[C@@]1(C)O (some centres unmarked) | 911 | > 10000 | 20.3 | 1670
6 | CCCCN(C)C(=O)OC[C@H](C)/C=C/C=C(\C)[C@H]1OC(=O)C[C@H](O)CC[C@@](C)(O)[C@@H](OC(C)=O)/C=C/[C@@H]1C | 86.5 | > 10000 |  | 198
7 | C/C(=C\C=C\[C@@H](C)COC(=O)N1CCCC1)[C@H]1OC(=O)C[C@H](O)CC[C@H](C)[C@@H](OC(=O)N2CCN(C3CCCCCC3)CC2)/C=C/[C@@H]1C | 8.39 | > 1000 | -90.9 | 10.8
8 | C/C(=C\C=C\[C@@H](C)COC(=O)N1Cc2ccccc2C1)[C@H]1OC(=O)C[C@H](O)CC[C@@](C)(O)[C@@H](OC(=O)N2CCN(C)CC2)/C=C/[C@@H]1C | 33.8 | > 1000 | -56 | 35.4
9 | C/C(=C\C=C\[C@@H](C)COC(=O)N1CCCC1(C)C)[C@H]1OC(=O)C[C@H](O)CC[C@@](C)(O)[C@@H](OC(=O)N2CCN(C3CCCCCC3)CC2)/C=C/[C@@H]1C | 28.9 | > 1000 | -93 | 10.4
10 | COCCN(C)C(=O)OC[C@H](C)/C=C/C=C(\C)[C@H]1OC(=O)C[C@H](O)CC[C@@](C)(O)[C@@H](OC(C)=O)/C=C/[C@@H]1C | 247 | > 1000 | -96.8 | 64.3
11 | C/C(=C\C=C\C(C)c1ccnc(N(C)C)n1)[C@H]1OC(=O)C[C@H](O)CC[C@@](C)(O)[C@@H](OC(=O)N2CCN(C)CC2)/C=C/[C@@H]1C (some centres unmarked) | 252 | > 1000 | 6.97 | 1290
12 | C/C(=C\C=C\[C@@H](C)c1ccccn1)[C@H]1OC(=O)C[C@H](O)CC[C@@](C)(O)[C@@H](OC(=O)N2CCN(C3CCCCCC3)C(C)C2)/C=C/[C@@H]1C (some centres unmarked) | 133 | > 1000 | -60.4 | 126
13 | C/C(=C\C=C\C(C)c1ccnc(N(C)C)n1)[C@H]1OC(=O)CCCCC[C@@H](OC(=O)N2CCN(C3CCCCCC3)CC2)/C=C/[C@@H]1C (some centres unmarked) | 4280 | > 10000 | 52 | > 10000
14 | C/C(=C\C=C\C(C)c1ccnc(N2CCCC2)n1)[C@H]1OC(=O)CCCCC[C@@H](OC(=O)N2CCN(C3CCCCCC3)CC2)/C=C/[C@@H]1C (some centres unmarked) | 810 | 4080 | 52 | > 10000
15 | C/C(=C\C=C\[C@@H](C)c1ccccn1)[C@H]1OC(=O)CCCC[C@@](C)(O)[C@@H](OC(=O)N2CCN(C)CC2)/C=C/[C@@H]1C | 31.6 | > 1000 | -75.7 | 33.9
16 | C/C(=C\C=C\[C@@H](C)CNC(=O)C1CCCC1)[C@H]1OC(=O)C[C@H](O)CC[C@@](C)(O)[C@@H](OC(=O)N2CCN(C)CC2)/C=C/[C@@H]1C | 263 | > 1000 | -57 | 137
